This is an account of results in patent US20060141620A1, “System and method for forming a cardiac tissue construct” (The Regents of the University of Michigan, priority 2004, published 2006).

Molecules are shown by their SMILES.

The test system of experiment [1] is cardiac tissue constructs. Briefly: Inotropic response to ionic calcium (force vs calcium concentration of the bath). The class given is cell-based, rat. The note with it: explanted constructs, calcium reintroduced after EGTA removal. The method, then: The effect of the addition of exogenous calcium on contractility was investigated in the constructs according to the present invention. First, CM in the bath was replaced with calcium-free DMEM (Invitrogen). Known volumes of 100 mM ethylene glycol-bis(2-aminoethylether)-N,N,N′,N′-tetraacetic acid (EGTA) were then added to the bath to bind residual stores of calcium in the constructs. At each incremental addition of EGTA, twitch stimulation was applied and the force of contraction was measured. Removal of calcium was considered to be complete when the force of contraction was not detectable and no further EGTA was added. At this point, the calcium-free DMEM in the bath was aspirated and the construct was washed 3 times with fresh calcium-free DMEM. Known volumes of 100 mM calcium were then added and stimulated contraction forces were re-evaluated with each addition. This process was repeated until there was no further increase in the active force with the addition of calcium. The relationship of calcium concentration of the bath to force of contraction was then plotted.
The pCa1/2 of mammalian cardiac tissue has been reported in the range 5.9 to 7.0 (see Bers, Excitation-Contraction Coupling and Cardiac Contractile Force, Norwell: Kluwer Academic Publishers, 2002). […] The inotropic response to external calcium is an indicator of the presence of functional calcium handling machinery.

The next experiment has as its system cardioids. The note with it: prior publication US 2004/0132184; cited from earlier work.
Experiment [2] concerns cardiac tissue constructs. As for the experimental part: Turning now to FIG. 7, the response to epinephrine was studied in four constructs according to the present invention by adding known concentrations of epinephrine to the CM, with the constructs still attached to the force transducer. […] The concentration of epinephrine was calculated based on the typical dosage given to an adult for cardiac resuscitation. The spontaneous contractility of the constructs was recorded for a period of 5 minutes after the addition of epinephrine.

Take `[Ca+2]` [calcium]: the pCa1/2 in experiment [1] came to 3.04. The response of cardioids result in the experiment with cardioids is reported as “positive inotropy”.
Take `CNC[C@H](O)c1ccc(O)c(O)c1` [epinephrine]: in experiment [2] (0.2 μg/ml), the “duration of rapid contraction pattern (resembling tachyarrhythmia)” value is 60 to 90 s. Moreover, the “effect on spontaneous contractility” value in experiment [2] (0.2 μg/ml in culture bath, four constructs) was “re-initiated spontaneous contractions”. In addition, the response of cardioids entry in the experiment with cardioids is “positive chronotropy”.
